Values joined by “and” are separate entries in the source; they are usually repeats but may differ in a detail not shown here. Identical values can stand only once. Like-named read-outs stand apart in the source and are kept apart here. Non-standard residues stand in square brackets, D forms with d. Residues, ends and D or L forms follow the SMILES beside them. *: point of attachment. NH(3,5-(CF3)2-benzyl) = FC(F)(F)c1cc(CN*)cc(C(F)(F)F)c1; NMePhe(4-F) = CN[C@@H](Cc1ccc(F)cc1)C(=O)O; Dmt = Cc1cc(O)cc(C)c1C[C@H](N)C(=O)O; NMeF = CN[C@@H](Cc1ccccc1)C(=O)O
What was measured:
in vitro = conditions: rat, plasma
MOR [1] = assay: Radioligand binding assay at μ opioid receptor; conditions: for Log[IC50±] (μ): log IC50 ± error; for Ki^μ/Ki^δ: ratio of binding affinities MOR/DOR
Description: (§1) Binding affinities of these ligands were measured on radioligand binding assays. […] ([43]).

MOR [2] = assay: Guinea pig isolated ileum (GPI) functional assay; assay type: cell-based
NK1R = molecular target: T1, NK1R (Cavia porcellus, UniProt P30547); assay: GPI/LMMP functional assay at NK1R (agonist and antagonist testing); assay type: cell-based, guinea pig; conditions: for GPI/LMMP (NK1R) Agonist: agonist activity at the concentration in the cell; for Kb: antagonist activity
T1 construct: The longitudinal muscle with myenteric plexus (LMMP) was carefully separated from the circular muscle; from tissue; host or cells: guinea pig ileum longitudinal muscle with myenteric plexus

DOR [3] = molecular target: DOR (Homo sapiens, UniProt P41143); assay: Radioligand binding assay at δ opioid receptor; conditions: for Ki: Ki^δ (nM)
Description: as §1

DOR [4] = molecular target: T2, DOR (Mus musculus, UniProt P32300); assay: Mouse isolated vas deferens (MVD) functional assay; assay type: cell-based; conditions: for IC50: MVD (DOR) IC50 (nM), agonist activity, electrically stimulated tissue
T2 construct: Male ICR mice under CO2 anesthesia were sacrificed by cervical dislocation and the vasa differentia removed; from tissue; host or cells: mouse vas deferens (ICR mice)

hNK1 = molecular target: T3, hNK1 (Homo sapiens, UniProt P25103); assay: hNK1/CHO cell membrane radioligand binding assay ([3H]SP); conditions: for Ki: Ki^hNK1 (nM), hNK1/CHO membranes, [3H]SP; for Ki^hNK1/Ki^rNK1: ratio human/rat NK1
T3 construct: expressed in transfected cells; host or cells: CHO

[5] = system: mice (acute thermal pain, tail flick); assay: Tail flick latency, 52° C. water bath, after intrathecal injection; assay type: in vivo, mouse
Description: Tail flick latencies were re-assessed at up to 8 time points after administration. […] Mice with baseline TFLs<3 s or >9 s were excluded from the study.
For both studies, maximal percent efficacy was calculated and expressed as: % Antinociception=100*(test latency after drug treatment−baseline latency)/(cutoff−baseline latency) Statistics: Between group data were analyzed by non-parametric two-way analysis of variance (ANOVA; post hoc. Neuman-Kuels) in FlashCalc (Dr. Michael H. Ossipov, University of Arizona, Tucson, Ariz., USA). Within group data were analyzed by non-parametric one-way analysis of variance (ANOVA; post hoc: Bonferroni) in FlashCalc (Dr. Michael H. Ossipov, University of Arizona, Tucson, Ariz., USA). Differences were considered to be significant if P≤0.05.

rNK1 = rNK1 (Rattus norvegicus, UniProt P14600); assay: Radioligand binding assay at rat NK1 receptor; conditions: Ki^rNK1 (nM)
Description: as §1

[6] = system: rats (acute thermal pain, paw withdrawal reflex)
[7] = agonist activity, electrically stimulated tissue, read-out: GPI (MOR) IC50
[8] = read-out: GPI/LMMP (NK1R) Ke (nM) ± S.E.M.
[9] = GPI/LMMP (NK1R) Ke (nM) ± S.E.M.
[10] = head of Table IX, read-out: GPI (MOR) ID50

T3 sequence (P25103 whole entry): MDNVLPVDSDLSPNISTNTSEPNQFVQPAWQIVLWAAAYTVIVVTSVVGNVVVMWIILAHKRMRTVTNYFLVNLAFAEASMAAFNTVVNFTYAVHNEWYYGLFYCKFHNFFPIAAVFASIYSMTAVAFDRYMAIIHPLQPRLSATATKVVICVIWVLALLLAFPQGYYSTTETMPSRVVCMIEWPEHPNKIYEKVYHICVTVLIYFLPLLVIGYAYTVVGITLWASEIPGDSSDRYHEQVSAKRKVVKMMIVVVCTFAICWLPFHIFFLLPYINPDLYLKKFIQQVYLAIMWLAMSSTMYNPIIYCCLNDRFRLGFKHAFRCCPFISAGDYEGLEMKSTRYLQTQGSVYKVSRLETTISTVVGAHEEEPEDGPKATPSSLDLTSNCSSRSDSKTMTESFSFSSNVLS
Chain of rNK1 (P14600 whole entry): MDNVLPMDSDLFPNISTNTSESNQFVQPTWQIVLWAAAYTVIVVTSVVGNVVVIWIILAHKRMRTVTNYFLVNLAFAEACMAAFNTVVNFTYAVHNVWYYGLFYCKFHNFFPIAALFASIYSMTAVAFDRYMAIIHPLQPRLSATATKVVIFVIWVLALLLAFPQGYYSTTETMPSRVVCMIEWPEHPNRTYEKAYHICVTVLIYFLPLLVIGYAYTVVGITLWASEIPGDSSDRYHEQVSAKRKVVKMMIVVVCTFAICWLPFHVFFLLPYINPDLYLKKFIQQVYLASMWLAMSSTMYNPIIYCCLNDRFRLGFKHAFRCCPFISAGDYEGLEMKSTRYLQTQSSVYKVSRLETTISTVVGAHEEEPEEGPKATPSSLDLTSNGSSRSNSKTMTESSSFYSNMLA
T2 sequence (P32300 whole entry): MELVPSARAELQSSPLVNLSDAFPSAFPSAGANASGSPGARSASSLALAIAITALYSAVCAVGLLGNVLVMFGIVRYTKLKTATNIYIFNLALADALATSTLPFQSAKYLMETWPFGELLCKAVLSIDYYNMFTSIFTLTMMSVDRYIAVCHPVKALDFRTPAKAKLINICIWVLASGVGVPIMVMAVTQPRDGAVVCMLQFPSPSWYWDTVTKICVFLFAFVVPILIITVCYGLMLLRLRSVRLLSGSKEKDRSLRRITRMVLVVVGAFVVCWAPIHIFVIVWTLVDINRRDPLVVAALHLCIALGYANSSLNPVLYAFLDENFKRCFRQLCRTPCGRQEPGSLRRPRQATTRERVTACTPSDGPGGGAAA
T1 sequence (P30547 whole entry): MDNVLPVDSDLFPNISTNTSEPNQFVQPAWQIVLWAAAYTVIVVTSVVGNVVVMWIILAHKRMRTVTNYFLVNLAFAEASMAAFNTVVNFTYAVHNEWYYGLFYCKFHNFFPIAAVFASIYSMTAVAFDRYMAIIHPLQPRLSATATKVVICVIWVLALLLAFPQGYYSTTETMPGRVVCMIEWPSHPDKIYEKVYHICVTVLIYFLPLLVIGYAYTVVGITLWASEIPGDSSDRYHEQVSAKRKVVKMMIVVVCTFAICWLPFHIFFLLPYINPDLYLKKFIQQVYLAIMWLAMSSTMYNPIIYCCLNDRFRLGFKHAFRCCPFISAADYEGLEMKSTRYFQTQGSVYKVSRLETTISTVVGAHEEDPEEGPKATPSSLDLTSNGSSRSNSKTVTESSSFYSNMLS
Chain of DOR (Homo sapiens, UniProt P41143) (P41143 whole entry): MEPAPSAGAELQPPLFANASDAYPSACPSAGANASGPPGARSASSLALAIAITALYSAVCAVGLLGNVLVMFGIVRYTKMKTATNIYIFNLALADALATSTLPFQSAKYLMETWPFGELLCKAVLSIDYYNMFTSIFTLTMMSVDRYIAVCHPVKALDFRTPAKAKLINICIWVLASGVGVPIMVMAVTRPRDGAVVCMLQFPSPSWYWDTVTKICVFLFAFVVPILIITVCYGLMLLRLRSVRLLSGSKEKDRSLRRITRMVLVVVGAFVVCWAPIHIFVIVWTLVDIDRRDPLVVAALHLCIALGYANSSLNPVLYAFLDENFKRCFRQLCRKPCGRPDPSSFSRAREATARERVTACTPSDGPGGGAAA

Row | Structure (SMILES) | half-life (in vitro) [h] | Ki (MOR [1]) [nM] | Log[IC50±] (μ) (MOR [1]) | Ki^μ/Ki^δ (MOR [1]) | IC50 (MOR [2]; [7]) | GPI/LMMP (NK1R) Agonist (NK1R) | Ki (DOR [3]) [nM] | IC50 (DOR [4]) | Ki (hNK1) | Ki^hNK1/Ki^rNK1 (hNK1) | Ki (rNK1) [nM] | GPI/MVD IC50 ratio (MOR [2]) | Kb (NK1R; [9]) [nM] | IC50 (DOR [3]) [nM] | also measured
1 | CSCC[C@H](NC(=O)[C@H](Cc1ccccc1)NC(=O)CNC(=O)[C@@H](C)NC(=O)[C@@H](N)Cc1c(C)cc(O)cc1C)C(=O)N1CCC[C@H]1C(=O)N[C@@H](CC(C)C)C(=O)N[C@@H](Cc1c[nH]c2ccccc12)C(=O)NCc1cc(C(F)(F)F)cc(C(F)(F)F)c1 [TY032, H-Dmt-D-Ala-Gly-Phe-Met-Pro-Leu-Trp-NH-Bn(3′,5′-(CF3)2), reference compound] | > 6 |  |  |  |  |  |  |  |  |  |  |  |  |  | 
2 | CC(C)C[C@H](NC(=O)[C@@H]1CCCN1C(=O)[C@H](Cc1ccc(F)cc1)NC(=O)CNC(=O)[C@@H](C)NC(=O)[C@@H](N)Cc1ccc(O)cc1)C(=O)N[C@@H](Cc1c[nH]c2ccccc12)C(=O)NCc1cc(C(F)(F)F)cc(C(F)(F)F)c1 [AKG190, H-Tyr-D-Ala-Gly-Phe(4-F)-Pro-Leu-Trp-NH-Bn(3′,5′-(CF3)2)] | < 2 | 4 | −8.08 ± 0.10 | 20/1 | 65 nM and 64.8 nM | None at 30 nM | 0.2 | 12.1 ± 4 nM | 5.61 ± 0.65 nM | 1/6 |  |  |  |  | binding selectivity for DOR over MOR (DOR [3]): 20 times; higher agonist activity at DOR compared to MOR (functional assays) (DOR [4]): 5 times
3 | Cc1cc(O)cc(C)c1C[C@H](N)C(=O)N[C@H](C)C(=O)NCC(=O)N[C@@H](Cc1ccc(F)cc1)C(=O)N1CCC[C@H]1C(=O)N[C@@H](CC(C)C)C(=O)N[C@@H](Cc1c[nH]c2ccccc12)C(=O)NCc1cc(C(F)(F)F)cc(C(F)(F)F)c1 [AKG127, H-Dmt-D-Ala-Gly-Phe(4-F)-Pro-Leu-Trp-NH-Bn(3′,5′-(CF3)2)] | > 24 | 1 | −8.72 ± 0.08 | 1/1 | 42 nM and 41.6 nM | None at 30 nM |  | 1.9 nM and 1.96 nM | 1 nM | 1/33 | 29.4 ± 1.5 |  |  |  | maximal level of antinociception (% antinociception) ([5]; 0.1 μg i.t.): approximately 70%; tail flick latencies (TFLs) ([5]; 0.1 μg in 5 μl, i.t., 60 min after injection): significantly higher than vehicle-treated mice and baseline values; Kb (NK1R; [8]): 5.3 nM; higher agonist activity at DOR compared to MOR (functional assays) (DOR [4]): 21 times
4 | CC(C)C[C@H](NC(=O)[C@@H]1CCCN1C(=O)CNC(=O)[C@H](Cc1ccc(F)cc1)N(C)C(=O)CNC(=O)[C@@H](C)NC(=O)[C@@H](N)Cc1ccc(O)cc1)C(=O)N[C@@H](Cc1c[nH]c2ccccc12)C(=O)NCc1cc(C(F)(F)F)cc(C(F)(F)F)c1 [AKG131, H-Tyr-D-Ala-Gly-NMePhe(4-F)-Gly-Pro-Leu-Trp-NH-Bn(3′,5′-(CF3)2)] (H-Y[dA]G[NMePhe(4-F)]GPLW-{NH(3,5-(CF3)2-benzyl)}) |  |  | −6.40 ± 0.32 | 11/1 | 63 nM and 62.5 nM | None at 100 nM | 17 | 30 nM and 29.7 nM | 2 nM | 1/8 | 89 | 2/1 | 35.8 ± 10.8 | 38 | 
5 | Cc1cc(O)cc(C)c1C[C@H](N)C(=O)N[C@H](C)C(=O)NCC(=O)N(C)[C@@H](Cc1ccc(F)cc1)C(=O)N[C@@H](CO)C(=O)N1CCC[C@H]1C(=O)N[C@@H](CC(C)C)C(=O)N[C@@H](Cc1c[nH]c2ccccc12)C(=O)NCc1cc(C(F)(F)F)cc(C(F)(F)F)c1 [AKG135] (H-[Dmt][dA]G[NMePhe(4-F)]SPLW-{NH(3,5-(CF3)2-benzyl)}; N-terminus assumed) |  | 0.5 | −8.93 ± 0.09 | 1/1 | 23 nM | None at 100 nM | 0.5 | 15.4 ± 5.4 nM | 7.26 ± 0.59 nM | 1/7 | 51.7 ± 16.2 | 2/1 | 28.7 ± 11.1 | 1 | IC50 (MOR [2]; [10]): 23.4 ± 4.74 nM
6 | Cc1cc(O)cc(C)c1C[C@H](N)C(=O)N[C@H](C)C(=O)NCC(=O)N(C)[C@@H](Cc1ccccc1)C(=O)N1CCC[C@H]1C(=O)N[C@@H](CC(C)C)C(=O)N[C@@H](Cc1c[nH]c2ccccc12)C(=O)NCc1cc(C(F)(F)F)cc(C(F)(F)F)c1 [AKG115, H-Dmt-D-Ala-Gly-NMePhe-Pro-Leu-Trp-NH-Bn(3′,5′-(CF3)2)] | > 24 | 1 | −8.78 ± 0.05 |  | 21 nM and 20.6 nM |  |  | 30.7 ± 7.5 nM |  |  |  |  |  | 12 | Kb (NK1R; [8]): 9.7 nM; maximal level of antinociception ([6]; 0.1 μg i.t.): minimal; motor skills ([6]; 10 μg in 5 μl): motor skills were impaired; Paw withdrawal latencies (PWLs) ([6]; spinal 0.1 μg in 5 μL, 60 min after the injection): not significantly higher than vehicle-treated rats and baseline values
7 | Cc1cc(O)cc(C)c1C[C@H](N)C(=O)N[C@H](C)C(=O)NCC(=O)N(C)[C@@H](Cc1ccccc1)C(=O)N[C@@H](CO)C(=O)NCC(=O)N1CCC[C@H]1C(=O)N[C@@H](CC(C)C)C(=O)N[C@@H](Cc1c[nH]c2ccccc12)C(=O)NCc1cc(C(F)(F)F)cc(C(F)(F)F)c1 [AKG-CRA-137] (H-[Dmt][dA]G[NMeF]SGPLW-{NH(3,5-(CF3)2-benzyl)}) |  | 0.7 | −8.82 ± 0.26 |  | 7.9 nM | None at 100 nM | 1 | 16.4 ± 5.17 nM | 4.9 nM and 4.76 nM | 1/18 | 87.5 | 1/2 | 26.3 ± 5.7 | 2.69 | IC50 (MOR [2]; [10]): 7.87 ± 2.57 nM

Reference: US11141452B2, “Bifunctional compounds for relief of pain comprising an opioid receptor agonist moiety and a NK1 receptor antagonist moiety and methods for treating pain” (THE ARIZONA BOARD OF REGENTS ON BEHALF OF THE UNIVERSITY OF …, priority 2014, dated 2021)
